≈ marks a conversion by molar mass, not a printed value.
Legend:
Test in all cases: Colony assay of hematopoietic progenitors
Assay type in all cases: cell-based
Conditions in all cases: Homo sapiens, read-out: IC50 for colony formation
BFU-E = tested on: BFU-E
CFU-GM = tested on: CFU-GM
CFU-Mix = tested on: CFU-Mix

**Q.** Which results are given for `C/C=C1\NC(=O)[C@H]2CSSCC/C=C/[C@H](CC(=O)N[C@H](C(C)C)C(=O)N2)OC(=O)[C@H](C(C)C)NC1=O` [FK228]?
**A.** IC50 (BFU-E): 3.1 ng/mL (≈ 5.73 nM); IC50 (CFU-GM): 4.4 ng/mL (≈ 8.14 nM); IC50 (CFU-Mix): 7.8 ng/mL (≈ 14.4 nM)

— paper PMC5926292 (Japanese Journal of Cancer Research : Gann, 2000)
